Laboratory results: patent US20160130293A1, “NOVEL COMPOUND DERIVED FROM PLANT OF GENUS QUAMOCLIT AND COMPOSITION CONTAINING SAME AS ACTIVE INGREDIENT FOR PREVENTING OR TREATING DIABETES” (KOREA RESEARCH INSTITUTE BIOSCIENCE, priority 2013, published 2016)

Tests used:
[1] = system: mice fed with high-fat diet (Male C57BL/6J); assay: Fasting blood glucose test in high-fat diet mice after 2 weeks of treatment; type: in vivo, mouse; conditions: 1 mg/kg oral daily for 2 weeks, fasted 16 hours, FIG. 6
Method: 5-week-old mouse (Male C57BL/6J, 19 g, Koatech, Pyeongtaek, Korea) was purchased and acclimated under constant temperature (25° C.) and humidity (50%) for 1 week and used for the experiment. Mice were classified into a group fed with normal diet and a group fed with high-fat diet and the mice were fed for 2 weeks, each group consisting of five mice.
At 2 weeks after feeding with high-fat diet, the experimental mice were classified into a normal mouse control group, a diabetic mouse control group, a diabetic mouse group treated with drug (glimepiride), a diabetic mouse group treated with the Quamoclit angulata-derived novel compound (KRIBB-BH-P, 1 mg/kg), and a diabetic mouse group treated with the Quamoclit angulata-derived novel compound (KRIBB-BH-SFP, 1 mg/kg), and the treated mice were orally administered with the drug and compounds daily for 2 weeks. Then, the mice were fasted for 16 hours, and the level of blood glucose was measured.

[2] = system: diabetic mice (Male C57BL/Ks DB/DB mouse); assay: Glycated hemoglobin (HbA1c) in diabetic mice after 4 weeks, ELISA kit; type: in vivo; conditions: 1 mg/kg oral daily for 4 weeks
Method: (§1) 6-week-old mice (Male C57BL/6J mouse, 20 g, Central Lab. Animal Inc., Seoul) and 6-week-old diabetic mice (Male C57BL/Ks DB/DB mouse, 20 g, Central Lab. Animal Inc., Seoul) were purchased and acclimated under constant temperature (25° C.) and humidity (50%) for 1 week and used for the experiment.
(§2) Mice were classified into a normal mouse control group, a diabetic mouse control group, a diabetic mouse group treated with drug (glimepiride), a diabetic mouse group treated with the Quamoclit angulata-derived novel compound (KRIBB-BH-P, 1 mg/kg), and a diabetic mouse group treated with the Quamoclit angulata-derived novel compound (KRIBB-BH-SFP, 1 mg/kg), each group consisting of five mice. The treated mice were orally administered with the drug and compounds daily for 4 weeks. The change in blood glucose in mice of each group was measured every week, and after 4 weeks, blood was collected from each mouse to measure the concentration of glycated hemoglobin.
In order to reduce the complications developed in diabetic patients under treatment, it is important to maintain the level of blood glucose at an appropriate level. Since the levels of blood glucose measured at a certain time may be changed by various factors, the test of glycated hemoglobin (HbAlc) is most widely used for the purpose of determining the long-term change in blood glucose control. […]
In order to determine the effect of the Quamoclit angulata-derived novel compound on the glycated hemoglobin, blood was collected from each mouse in the normal mouse control group, the diabetic mouse control group, the diabetic mouse group treated with the Quamoclit angulata-derived novel compound (KRIBB-BH-P, 1 mg/kg), and the diabetic mouse group treated with the Quamoclit angulata-derived novel compound (KRIBB-BH-SFP, 1 mg/kg), in which the treated mice were orally administered with the compounds daily for 4 weeks, and the levels of glycated hemoglobin were measured using an ELISA kit (Cusabio biotech, Japan).

[3] = system: diabetic mice (Male C57BL/Ks DB/DB mouse); assay: Blood glucose in diabetic mice treated orally for 4 weeks; type: in vivo; conditions: 1 mg/kg oral daily for 4 weeks, vs diabetic mouse control group, FIG. 4
Method: Normal mice and diabetic mice were treated with the Quamoclit-derived novel compound to determine the changes in diabetes indicators such as blood glucose and glycated hemoglobin.
as §1, §2

Min6 cell line = assay: Stimulation of insulin secretion in mouse pancreatic beta-cell line (Insulin ELISA); type: cell-based; conditions: 25 mM glucose, 0.5 ng/ml, 2 hours, vs 25 mM glucose negative control, FIG. 3
Method: The effect of the novel compound KRIBB-BH-SFP isolated from Quamoclit angulata on the stimulation of insulin secretion was determined in a mouse pancreatic beta-cell line, Min6 cell line.
Min6 cells (ATCC, USA) were cultured in HDMEM supplemented with 15% fetal bovine serum. To induce the expression of insulin in the Min6 cell line, the cells were plated on a 96 well plate at a density of 1×10^4 cell/plate and cultured in […] DMEM (high glucose) supplemented with 15% FBS for 72 hours. Then, the cells were washed with PBS buffer solution and cultured in HBSS buffer solution for 2 hours, and then, the buffer solution was replaced with HBSS buffer solution supplemented with 25 mM glucose. Then, the novel compound […] was added to a final concentration of 0.5 ng/ml, and the cells were cultured for 2 hours to determine the stimulation of insulin expression. Meanwhile, for use as a control, cells were treated with 5.5 mM glucose such that the insulin was not expressed. For use as a negative control, cells were treated with 25 mM glucose, and the level of insulin expression in these cells was compared to determine the effect of the novel compound (KRIBB-BH-SFP) derived from Quamoclit angulata on the stimulation of insulin expression. […]

SMILES | level of blood glucose (fasting) [1] | HbA1c [2] [%] | level of blood glucose [3] | level of insulin expression (insulin secreted from Min6 cells) (Min6 cell line) | level of glycated hemoglobin ([2]; in words)
CCCCCC(CCCC(O)CC(=O)O)OC1OC(COC2OC(C)C(OC3CC(O)C(O)C(C)O3)CC2O)C(O)C(O)C1OC1CC(O)C(OC2CC(O)C(OC3CC(O)C(OC)C(C)O3)C(C)O2)C(C)O1 (stereo not drawn) [KRIBB-BH-P] | significantly reduced | 6.63 ± 0.70 | significantly reduced |  | 
CCCCCC(O)CCCC(O)CC(=O)O (stereo not drawn) [KRIBB-BH-SC] |  |  |  | increased | 
CCCCCC(CCCC(O)CC(=O)O)OC1OC(C)C(O)C(O)C1O (stereo not drawn) [KRIBB-BH-SFP] | significantly reduced | 6.51 ± 0.46 | significantly reduced | increased | significantly reduced
